Source: patent publication US8431704B2, “Quinoline or isoquinoline substituted P2X7 antagonists” (Janssen Pharmaceutica NV, priority 2008, dated 2013)

Molecular target: T1, hP2X7 (Homo sapiens, UniProt Q99572)
T1 construct: expressed in transfected cells; host or cells: 1321N1 astrocytoma cells
T1 sequence (Q99572 1-595): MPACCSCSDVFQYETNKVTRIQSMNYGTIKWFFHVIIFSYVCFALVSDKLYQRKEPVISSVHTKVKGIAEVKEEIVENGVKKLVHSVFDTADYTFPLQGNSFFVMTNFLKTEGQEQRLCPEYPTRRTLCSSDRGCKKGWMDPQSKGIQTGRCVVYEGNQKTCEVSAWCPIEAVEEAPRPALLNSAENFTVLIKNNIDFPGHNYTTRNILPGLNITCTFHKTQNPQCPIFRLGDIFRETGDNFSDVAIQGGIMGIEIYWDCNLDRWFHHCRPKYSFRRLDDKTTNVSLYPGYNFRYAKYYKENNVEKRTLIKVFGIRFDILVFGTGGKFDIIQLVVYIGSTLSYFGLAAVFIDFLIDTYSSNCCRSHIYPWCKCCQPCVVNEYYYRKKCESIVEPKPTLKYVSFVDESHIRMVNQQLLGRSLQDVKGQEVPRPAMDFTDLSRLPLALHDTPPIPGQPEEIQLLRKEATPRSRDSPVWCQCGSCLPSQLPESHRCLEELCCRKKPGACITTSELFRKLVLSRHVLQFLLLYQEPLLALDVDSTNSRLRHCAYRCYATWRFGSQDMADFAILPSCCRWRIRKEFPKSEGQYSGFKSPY
Assay: P2X7 antagonism: ligand-induced Ca2+ flux in 1321N1 astrocytoma cells overexpressing hP2X7
Format: cell-based
Conditions: pIC50 = -log(IC50), read-out: hP2RX7pIC50 (mean pIC50 values) (converted)
Description: Extracellular binding of ATP to P2X7 that is expressed in the cell-membrane opens the ligand gated cation channel and allows Ca^2+ entry into the cell. This ligand-induced Ca^2+ flux was measured in 1321N1 astrocytoma cells overexpressing hP2X7 for the compounds of the present invention.
The calcium assay kit used (Molecular Devices, R8090), provides a Ca^2+ sensitive dye together with a quenching dye. However, no specifications are given by the manufacturer. The kit most likely consists of a membrane permeable acetoxymethyl (AM) ester of a fluorescent Ca^2+ indicator, such as fluo-4 or fluo-3. Upon cellular uptake, the AM esters get cleaved by esterases, liberating the Ca^2+-sensitive dye which can then bind calcium. The dyes have an absorption spectrum compatible with excitation at 488 nm by argon laser sources and a large fluorescence intensity increase in response to Ca^2+ binding without an accompanying spectral shift. Emission wavelength is in the range of 510-560 nm.
The fluorescence, and thus the changes in intracellular [Ca^2+] in the 1321N1 cells was monitored in time before and after addition of the agonist. The effect of the antagonist was measured as % control and as IC50.

SMILES | IC50 [nM]
CC(C)N1CCN(c2ccc3c(C(=O)NCC(c4cnc(C5CCCC5)nc4)N4CCC(F)(F)CC4)cccc3n2)CC1 (stereo not shown) [Compound 213] | 100
CC(C)N1CCN(c2ccc3c(C(=O)NCC(c4cnc(N5CCCC5)nc4)N4CCC(F)(F)CC4)cccc3n2)CC1 (stereo not shown) [Compound 215] | 174
O=C(NCC(c1cnc(NC2CC2)nc1)N1CCC(F)(F)CC1)c1cccc2nc(N3CCCC3)ccc12 (stereo not shown) [Compound 216] | 100
CCc1ncc(C(CNC(=O)c2cccc3nc(NCC4CC4)ccc23)N2CCC(F)(F)CC2)cn1 (stereo not shown) [Compound 217] | 47.9
CN(C)c1ncc(C(CNC(=O)c2cccc3nc(N4CCCC4)ccc23)N2CCOCC2)cn1 (stereo not shown) [Compound 218] | 316
O=C(NCC(c1cnc(N2CCCC2)nc1)N1CCOCC1)c1cccc2nc(N3CCCC3)ccc12 (stereo not shown) [Compound 219] | 126
CCc1ncc(C(CNC(=O)c2cccc3nc(N4CCOCC4)ccc23)N2CCC(F)(F)CC2)cn1 (stereo not shown) [Compound 220] | 83.2
Nc1ncc(C(CNC(=O)c2cccc3nc(N4CCCC4)ccc23)N2CCC(F)(F)CC2)cn1 (stereo not shown) [Compound 226] | 162
CC(C)Oc1ncc(C(CNC(=O)c2cccc3nc(NCC4CC4)ccc23)N2CCOCC2)cn1 (stereo not shown) [Compound 227] | 33.1
CCOc1ncc(C(CNC(=O)c2cccc3nc(N4CCOCC4)ccc23)N2CCOCC2)cn1 (stereo not shown) [Compound 228] | 51.3
CC(C)c1ncc(C(CNC(=O)c2cccc3nc(N4CCOCC4)ccc23)N2CCOCC2)cn1 (stereo not shown) [Compound 230] | 141
CN(C)c1ncc(C(CNC(=O)c2cccc3nc(N4CCOCC4)ccc23)N2CCOCC2)cn1 (stereo not shown) [Compound 232] | 170
CN(C)c1ncc(C(CNC(=O)c2cccc3nc(NC4CC4)ccc23)N2CCOCC2)cn1 (stereo not shown) [Compound 233] | 148
O=C(NCC(c1cnc(OCC2CC2)nc1)N1CCC(F)(F)CC1)c1cccc2nc(NCC3CC3)ccc12 (stereo not shown) [Compound 234] | 26.9
CC(C)Oc1ncc(C(CNC(=O)c2cccc3nc(N4CCOCC4)ccc23)N2CCC(F)(F)CC2)cn1 (stereo not shown) [Compound 235] | 56.2
O=C(NCC(c1cnc(C2CCCC2)nc1)N1CCC(F)(F)CC1)c1cccc2nc(NC3CC3)ccc12 (stereo not shown) [Compound 238] | 38.9
CC(=O)N1CCN(c2ncc(C(CNC(=O)c3cccc4nc(NCC5CC5)ccc34)N3CCC(F)(F)CC3)cn2)CC1 (stereo not shown) [Compound 240] | 57.5
CC(C)Oc1ncc(C(CNC(=O)c2cccc3nc(NC4CC4)ccc23)N2CCOCC2)cn1 (stereo not shown) [Compound 242] | 115
CCOc1ncc(C(CNC(=O)c2cccc3nc(NCC4CC4)ccc23)N2CCOCC2)cn1 (stereo not shown) [Compound 243] | 50.1

SMILES | IC50 [nM]
CC(C)c1ncc(C(CNC(=O)c2cccc3nc(NCC4CC4)ccc23)N2CCOCC2)cn1 (stereo not shown) [Compound 244] | 79.4
O=C(NCC(c1cnc(OCC2CC2)nc1)N1CCC(F)(F)CC1)c1cccc2nc(NC3CC3)ccc12 (stereo not shown) [Compound 247] | 20.9
CC(C)Oc1ncc(C(CNC(=O)c2cccc3nc(NCC4CC4)ccc23)N2CCC(F)(F)CC2)cn1 (stereo not shown) [Compound 248] | 33.1
CC(=O)N1CCN(c2ncc(C(CNC(=O)c3cccc4nc(N5CCOCC5)ccc34)N3CCC(F)(F)CC3)cn2)CC1 (stereo not shown) [Compound 250] | 77.6
CC(=O)N1CCN(c2ncc(C(CNC(=O)c3cccc4nc(NC5CC5)ccc34)N3CCC(F)(F)CC3)cn2)CC1 (stereo not shown) [Compound 251] | 64.6
CCOc1ncc(C(CNC(=O)c2cccc3nc(N4CCOCC4)ccc23)N2CCC(F)(F)CC2)cn1 (stereo not shown) [Compound 253] | 36.3
O=C(NCC(c1cncnc1)N1CCC(F)(F)CC1)c1cccc2nc(NC3CC3)ccc12 (stereo not shown) [Compound 256] | 44.7
CCOc1ncc(C(CNC(=O)c2cccc3nc(NCC4CC4)ccc23)N2CCC(F)(F)CC2)cn1 (stereo not shown) [Compound 257] | 26.3
CC(C)c1ncc(C(CNC(=O)c2cccc3nc(NCC4CC4)ccc23)N2CCC(F)(F)CC2)cn1 (stereo not shown) [Compound 258] | 44.7
O=C(NCC(c1cnc(N2CCCC2)nc1)N1CCOCC1)c1cccc2nc(NC3CC3)ccc12 (stereo not shown) [Compound 259] | 97.7
COc1ncc(C(CNC(=O)c2cccc3nc(NCC4CC4)ccc23)N2CCC(F)(F)CC2)cn1 (stereo not shown) [Compound 260] | 27.5
O=C(NCC(c1cnc(NC2CC2)nc1)N1CCC(F)(F)CC1)c1cccc2nc(NCC3CC3)ccc12 (stereo not shown) [Compound 263] | 37.2
CC(C)c1ncc(C(CNC(=O)c2cccc3nc(N4CCOCC4)ccc23)N2CCC(F)(F)CC2)cn1 (stereo not shown) [Compound 265] | 64.6
CN(C)c1ncc(C(CNC(=O)c2cccc3nc(NCC4CC4)ccc23)N2CCC(F)(F)CC2)cn1 (stereo not shown) [Compound 266] | 50.1
Nc1ncc(C(CNC(=O)c2cccc3nc(NCC4CC4)ccc23)N2CCC(F)(F)CC2)cn1 (stereo not shown) [Compound 267] | 115
O=C(NCC(c1cncnc1)N1CCC(F)(F)CC1)c1cccc2nc(N3CCOCC3)ccc12 (stereo not shown) [Compound 268] | 33.1
O=C(NCC(c1cnc(N2CCOCC2)nc1)N1CCC(F)(F)CC1)c1cccc2nc(N3CCOCC3)ccc12 (stereo not shown) [Compound 269] | 229
CC1CN(c2ccc3c(C(=O)NCC(c4cnc(C(F)(F)F)nc4)N4CCOCC4)cccc3n2)CCN1 (stereo not shown) [Compound 271] | 107
CC(C)N(C)c1ccc2c(C(=O)NCC(c3cnc(C(F)(F)F)nc3)N3CCOCC3)cccc2n1 (stereo not shown) [Compound 272] | 60.3

The remaining lines, values ahead:

IC50 [nM] | SMILES
33.9 | O=C(NCC(c1cnc(OC2CCC2)nc1)N1CCC(F)(F)CC1)c1cccc2nc(NC3CC3)ccc12 (stereo not shown) [Compound 214]
67.6 | CCc1ncc(C(CNC(=O)c2cccc3nc(NC4CC4)ccc23)N2CCC(F)(F)CC2)cn1 (stereo not shown) [Compound 221]
66.1 | CC(=O)N1CCN(c2ncc(C(CNC(=O)c3cccc4nc(N5CCCC5)ccc34)N3CCC(F)(F)CC3)cn2)CC1 (stereo not shown) [Compound 222]
195 | O=C(NCC(c1cnc(N2CCNCC2)nc1)N1CCC(F)(F)CC1)c1cccc2nc(NCC3CC3)ccc12 (stereo not shown) [Compound 223]
115 | O=C(NCC(c1cnc(N2CCOCC2)nc1)N1CCC(F)(F)CC1)c1cccc2nc(N3CCCC3)ccc12 (stereo not shown) [Compound 224]
102 | O=C(NCC(c1cnc(N2CCCC2)nc1)N1CCC(F)(F)CC1)c1cccc2nc(N3CCCC3)ccc12 (stereo not shown) [Compound 225]
69.2 | CCOc1ncc(C(CNC(=O)c2cccc3nc(NC4CC4)ccc23)N2CCOCC2)cn1 (stereo not shown) [Compound 229]
115 | CC(C)c1ncc(C(CNC(=O)c2cccc3nc(NC4CC4)ccc23)N2CCOCC2)cn1 (stereo not shown) [Compound 231]
34.7 | CC(C)Oc1ncc(C(CNC(=O)c2cccc3nc(NC4CC4)ccc23)N2CCC(F)(F)CC2)cn1 (stereo not shown) [Compound 236]
89.1 | O=C(NCC(c1cnc(-c2ccccc2)nc1)N1CCC(F)(F)CC1)c1cccc2nc(NCC3CC3)ccc12 (stereo not shown) [Compound 237]
53.7 | O=C(NCC(c1cnc(OC2CCC2)nc1)N1CCC(F)(F)CC1)c1cccc2nc(N3CCOCC3)ccc12 (stereo not shown) [Compound 239]
117 | CC(C)Oc1ncc(C(CNC(=O)c2cccc3nc(N4CCOCC4)ccc23)N2CCOCC2)cn1 (stereo not shown) [Compound 241]
170 | CN(C)c1ncc(C(CNC(=O)c2cccc3nc(NCC4CC4)ccc23)N2CCOCC2)cn1 (stereo not shown) [Compound 245]
32.4 | O=C(NCC(c1cnc(OCC2CC2)nc1)N1CCC(F)(F)CC1)c1cccc2nc(N3CCOCC3)ccc12 (stereo not shown) [Compound 246]
51.3 | O=C(NCC(c1cnc(C2CCCC2)nc1)N1CCC(F)(F)CC1)c1cccc2nc(N3CCOCC3)ccc12 (stereo not shown) [Compound 249]
49 | O=C(NCC(c1cnc(N2CCOCC2)nc1)N1CCC(F)(F)CC1)c1cccc2nc(NCC3CC3)ccc12 (stereo not shown) [Compound 252]
29.5 | CCOc1ncc(C(CNC(=O)c2cccc3nc(NC4CC4)ccc23)N2CCC(F)(F)CC2)cn1 (stereo not shown) [Compound 254]
37.2 | CC(C)c1ncc(C(CNC(=O)c2cccc3nc(NC4CC4)ccc23)N2CCC(F)(F)CC2)cn1 (stereo not shown) [Compound 261]
56.2 | O=C(NCC(c1cnc(N2CCCC2)nc1)N1CCC(F)(F)CC1)c1cccc2nc(NCC3CC3)ccc12 (stereo not shown) [Compound 262]
77.6 | O=C(NCC(c1cnc(N2CCCC2)nc1)N1CCOCC1)c1cccc2nc(NCC3CC3)ccc12 (stereo not shown) [Compound 264]
102 | O=C(NCC(c1cnc(NC2CC2)nc1)N1CCC(F)(F)CC1)c1cccc2nc(NC3CC3)ccc12 (stereo not shown) [Compound 270]
112 | CC1(C)CCN(c2ccc3c(C(=O)NCC(c4cnc(C(F)(F)F)nc4)N4CCOCC4)cccc3n2)CC1 (stereo not shown) [Compound 273]
145 | CCC1CN(c2ccc3c(C(=O)NCC(c4cnc(C(F)(F)F)nc4)N4CCOCC4)cccc3n2)CCN1 (stereo not shown) [Compound 274]
